Data on one molecule can be found in US9108939B2, “(1, 1, 1,3,3,3-hexafluoro-2 hydroxypropan-2-yl) phenyl derivative, pharmaceutical compositions thereof and their use for the treatment of atherosclerosis” (Merck Sharp & Dohme B.V., priority 2009, dated 2015).

In the assay the target is T1, recombinant human LXRβ-LBD-GST (Homo sapiens, UniProt P55055).
T1 construct: The LBD of LXRα or LXRβ was amplified by PCR and sub-cloned into the prokaryotic expression vector pGEX-4T-1; made in house; host or cells: E. coli
T1 sequence (P55055 222-460 limits assumed): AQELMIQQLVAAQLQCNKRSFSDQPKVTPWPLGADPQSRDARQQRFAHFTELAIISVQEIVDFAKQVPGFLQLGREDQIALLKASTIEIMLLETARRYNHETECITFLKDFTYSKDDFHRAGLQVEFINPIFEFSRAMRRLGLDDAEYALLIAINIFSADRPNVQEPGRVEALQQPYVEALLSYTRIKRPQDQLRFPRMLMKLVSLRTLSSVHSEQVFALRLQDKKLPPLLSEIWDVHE
The assay can be described thus: Radioligand competition binding scintillation proximity assay (SpA), LXRβ. Conditions: read-out: LXRβ pKi (converted). The text has this: Radioligand Competition Binding Scintillation Proximity Assay (SpA) Using Recombinant Human LXRα or LXRβ Protein
These assays utilise the purified ligand binding domain (LBD) of Liver X Receptor alpha (LXRα) or Liver X Receptor beta (LXRβ) fused to […] (GST) tagged protein (LXRα-LBD-GST and LXRβ-LBD-GST respectively) and scintillation proximity assay (SpA) technology to determine binding affinities (pKi) of compounds at the ligand binding domain (LBD) of the human nuclear hormone receptor LXRα or LXRβ.
Preparation of Recombinant Human LXRα and LXRβ
Human LXRα and LXRβ were expressed as GST-fusion proteins in E. coli.
The LBD of LXRα or LXRβ was amplified by PCR and sub-cloned into the prokaryotic expression vector pGEX-4T-1 (GE Healthcare). […] E. coli, containing either the LXRα or LXRβ pGEX-4T-1 plasmid, were propagated, induced, and harvested by centrifugation. The bacterial pellets were resuspended in lysis buffer containing 50 mM tris(Hydroxymethyl)aminomethane (TRIS)-pH 8.0, 100 mM Sodium Chloride (NaCl), 1 mM ethylenediaminetetraacetic acid (EDTA) and one tablet of Proteinase inhibitor cocktail complete/EDTA free (Roche) (per 50 mL of buffer). The mixtures were sonicated on ice with a Branson sonifier. The suspensions were centrifuged and dithiothreitol (DTT) added to the supernatants to obtain a final concentration of 25 mM. […] Proteins were stored in 20 mM N2-hydroxyethylpiperazine-N′-2-ethanesulfonic acid (HEPES), 2 mM DTT with 10% glycerol at −80° C.
Binding to LXRα or LXRβ LBDs
For LXRα or LXRβ assays, an aliquot of recombinant human LXRα-LBD-GST or LXRβ-LBD-GST protein was diluted to 0.5 μg/mL and incubated in a final volume of 100 μL SpA buffer (10 mM potassium hydrogen phosphate anhydrous [K2HPO4], 10 mM potassium Phosphate Monobasic [KH2PO4], 2 mM EDTA pH 7.1, 50 mM NaCl, 1 mM DTT, 2 mM 3-[(3-cholamidopropyl)dimethylammonio]-1-propanesulfonate (CHAPS)) containing Protein-A coupled scintillant filled YtSi SpA beads (GE Healthcare), to a final concentration of 1 mg/mL and Goat anti-GST antibody (GE Healthcare) to a final concentration of 5 μg/mL. […] Test compounds were assayed over a concentration range. After incubation, the assay plates were read on a Packard TopCount.

On to `O=C(Nc1ccc(OC2CCN(Cc3ccc(C(O)(C(F)(F)F)C(F)(F)F)cc3)CC2)cc1)Nc1ccncn1` [Example 2E, 1-(4-(1-(4-(1,1,1,3,3,3-Hexafluoro-2-hydroxypropan-2-yl)benzyl)piperidin-4-yloxy)phenyl)-3-(pyrimidin-4-yl)urea], for which the Ki is 3.02 nM.
